c1ccc(CSSCc2ccccc2)cc1
Details | solubility (mole fraction)
in chloroform, 284.95 K | 0.102
in chloroform, 288.75 K | 0.131
in chloroform, 292.75 K | 0.16
in chloroform, 298.65 K | 0.208
in chloroform, 302.6 K | 0.246
in chloroform, 308.15 K | 0.291
in ethanol, 284.7 K | 0.000168
in ethanol, 289.45 K | 0.000398
in ethanol, 294.45 K | 0.000905
in ethanol, 299.55 K | 0.0019
in ethanol, 303.25 K | 0.00301
in ethanol, 308.25 K | 0.00524
in ethyl acetate, 285.55 K | 0.0332
in ethyl acetate, 289.95 K | 0.05
in ethyl acetate, 293.65 K | 0.0667
in ethyl acetate, 298.8 K | 0.0963
in ethyl acetate, 303.65 K | 0.131
in ethyl acetate, 308.4 K | 0.164
in n-hexane, 284.25 K | 0.000922
in n-hexane, 288.35 K | 0.0019
in n-hexane, 294.45 K | 0.00448
in n-hexane, 298.25 K | 0.00739
in n-hexane, 303.65 K | 0.0137
in n-hexane, 309.05 K | 0.0223
in toluene, 283.45 K | 0.0521
in toluene, 288.16 K | 0.0769
in toluene, 292.65 K | 0.103
in toluene, 299.35 K | 0.162
in toluene, 303.15 K | 0.198
in toluene, 308.65 K | 0.248

Source: BigSolDB 2.1
